Assay results taken from patent US20090226527A1, “Particulate-stabilized injectable pharmacutical compositions of posaconazole” (priority 2004, published 2009).
Converted amounts (≈) assume the structure as drawn.

Assays:
[1] = system: infectious agents (strains tested); experiment: microbe, parasite or virus in culture; assay type: cell-based
[2] = Solubility of Posaconazole in water; assay type: physicochemical

SMILES: CCC([C@@H](C)O)n1ncn(-c2ccc(N3CCN(c4ccc(OC[C@@H]5CO[C@@](Cn6cncn6)(c6ccc(F)cc6F)C5)cc4)CC3)cc2)c1=O (stereo partly shown) [Posaconazole]
- MIC ([1]; Exophiala moniliae, read-out: MIC[90]): 0.016 µg/mL (≈ 0.0228 µM)
- MIC ([1]; Fonsecae pedrosoi, read-out: Geometric Mean MIC): 0.25 µg/mL (≈ 0.357 µM)
- MIC ([1]; Fonsecae pedrosoi, read-out: MIC[90]): 0.25 µg/mL (≈ 0.357 µM)
- MIC ([1]; Fusarium spp, read-out: Geometric Mean MIC): 2.32 µg/mL (≈ 3.31 µM)
- MIC ([1]; Fusarium spp, read-out: MIC[90]): 16 µg/mL (≈ 22.8 µM)
- MIC ([1]; Hansenula anomala, Pichia anomala, read-out: Geometric Mean MIC): 0.689 µg/mL (≈ 0.983 µM)
- MIC ([1]; Hansenula anomala, Pichia anomala, read-out: MIC[90]): 1 µg/mL (≈ 1.43 µM)
- MIC ([1]; Histoplasma capsulatum, read-out: Geometric Mean MIC, Histoplasma capsulatum): 0.038 µg/mL (≈ 0.0542 µM)
- MIC ([1]; Histoplasma capsulatum, read-out: MIC[90], Histoplasma capsulatum): 0.25 µg/mL (≈ 0.357 µM)
- MIC ([1]; Kluyveromyces marxianus, Candida kefyr, read-out: Geometric Mean MIC): 0.081 µg/mL (≈ 0.116 µM)
- MIC ([1]; Kluyveromyces marxianus, Candida kefyr, read-out: MIC[90]): 0.25 µg/mL (≈ 0.357 µM)
- MIC ([1]; Kluyveromyces marxianus, read-out: Geometric Mean MIC): 0.079 µg/mL (≈ 0.113 µM)
- MIC ([1]; Kluyveromyces marxianus, read-out: MIC[90]): 0.063 to 0.25 µg/mL (≈ 0.0899 to 0.357 µM)
- MIC ([1]; Kodamaea ohmeri, Pichia ohmeri, read-out: Geometric Mean MIC): 0.016 µg/mL (≈ 0.0228 µM)
- MIC ([1]; Kodamaea ohmeri, Pichia ohmeri, read-out: MIC[90]): 0.016 µg/mL (≈ 0.0228 µM)
- MIC ([1]; Lodderomyces parapsilosis, Candida parapsilosis, read-out: Geometric Mean MIC): 0.073 µg/mL (≈ 0.104 µM)
- MIC ([1]; Lodderomyces parapsilosis, Candida parapsilosis, read-out: MIC[90]): 0.125 µg/mL (≈ 0.178 µM)
- MIC ([1]; Meyerozyma guilliermondii, Candida guilliermondii, read-out: Geometric Mean MIC): 0.178 µg/mL (≈ 0.254 µM)
- MIC ([1]; Meyerozyma guilliermondii, Candida guilliermondii, read-out: MIC[90]): 0.5 µg/mL (≈ 0.713 µM)
- MIC ([1]; Microsporum audouinii, read-out: Geometric Mean MIC): 0.25 µg/mL (≈ 0.357 µM)
- MIC ([1]; Microsporum audouinii, read-out: MIC[90]): 0.25 µg/mL (≈ 0.357 µM)
- MIC ([1]; Microsporum canis, read-out: Geometric Mean MIC): 0.034 µg/mL (≈ 0.0485 µM)
- MIC ([1]; Microsporum canis, read-out: MIC[90]): 0.5 µg/mL (≈ 0.713 µM)
- MIC ([1]; Mucor spp, read-out: Geometric Mean MIC): 0.694 µg/mL (≈ 0.99 µM)
- MIC ([1]; Mucor spp, read-out: MIC[90]): 16 µg/mL (≈ 22.8 µM)
- MIC ([1]; Nakaseomyces glabratus, Candida glabrata, read-out: Geometric Mean MIC): 0.672 µg/mL (≈ 0.959 µM)
- MIC ([1]; Nakaseomyces glabratus, Candida glabrata, read-out: MIC[90]): 2 µg/mL (≈ 2.85 µM)
- MIC ([1]; Nannizzia fulva, Microsporum fulvum, read-out: Geometric Mean MIC): 0.5 µg/mL (≈ 0.713 µM)
- MIC ([1]; Nannizzia fulva, Microsporum fulvum, read-out: MIC[90]): 0.5 µg/mL (≈ 0.713 µM)
- MIC ([1]; Nannizzia gypsea, Microsporum gypseum, read-out: Geometric Mean MIC): 0.042 µg/mL (≈ 0.0599 µM)
- MIC ([1]; Nannizzia gypsea, Microsporum gypseum, read-out: MIC[90]): 0.008 to 0.5 µg/mL (≈ 0.0114 to 0.713 µM)
- MIC ([1]; Nannizzia persicolor, Microsporum persicolor, read-out: Geometric Mean MIC): 0.25 µg/mL (≈ 0.357 µM)
- MIC ([1]; Nannizzia persicolor, Microsporum persicolor, read-out: MIC[90]): 0.25 µg/mL (≈ 0.357 µM)
- MIC ([1]; Paecilomyces spp, read-out: Geometric Mean MIC): 0.239 µg/mL (≈ 0.341 µM)
- MIC ([1]; Paecilomyces spp, read-out: MIC[90]): 0.5 µg/mL (≈ 0.713 µM)
- MIC ([1]; Papiliotrema laurentii, Cryptococcus laurentii, read-out: Geometric Mean MIC): 0.095 µg/mL (≈ 0.136 µM)
- MIC ([1]; Papiliotrema laurentii, Cryptococcus laurentii, read-out: MIC[90]): 0.008 to 0.5 µg/mL (≈ 0.0114 to 0.713 µM)
- MIC ([1]; Paracoccidioides brasiliensis, read-out: Geometric Mean MIC, Paracoccidioides brasiliensis): 0.048 µg/mL (≈ 0.0685 µM)
- MIC ([1]; Paracoccidioides brasiliensis, read-out: MIC[90], Paracoccidioides brasiliensis): 0.125 µg/mL (≈ 0.178 µM)
- MIC ([1]; Penicillium spp, read-out: Geometric Mean MIC): 0.308 µg/mL (≈ 0.44 µM)
- MIC ([1]; Penicillium spp, read-out: MIC[90]): 1 µg/mL (≈ 1.43 µM)
- MIC ([1]; Pichia etchel, read-out: Geometric Mean MIC): 0.125 µg/mL (≈ 0.178 µM)
- MIC ([1]; Pichia etchel, read-out: MIC[90]): 0.125 µg/mL (≈ 0.178 µM)
- MIC ([1]; Pichia kudriavzevii, Candida krusei, read-out: Geometric Mean MIC): 0.335 µg/mL (≈ 0.478 µM)
- MIC ([1]; Pichia kudriavzevii, Candida krusei, read-out: MIC[90]): 1 µg/mL (≈ 1.43 µM)
- MIC ([1]; Pleurothecium obovoideum, Ramichloridium obovoideum, read-out: Geometric Mean MIC): 0.044 µg/mL (≈ 0.0628 µM)
- MIC ([1]; Pleurothecium obovoideum, Ramichloridium obovoideum, read-out: MIC[90]): 0.031 to 0.063 µg/mL (≈ 0.0442 to 0.0899 µM)
- MIC ([1]; Rhizomucor spp, read-out: Geometric Mean MIC): 0.016 µg/mL (≈ 0.0228 µM)
- MIC ([1]; Rhizomucor spp, read-out: MIC[90]): 0.016 µg/mL (≈ 0.0228 µM)
- MIC ([1]; Rhizopus spp, read-out: Geometric Mean MIC): 1 µg/mL (≈ 1.43 µM)
- MIC ([1]; Rhizopus spp, read-out: MIC[90]): 4 µg/mL (≈ 5.71 µM)
- MIC ([1]; Saccharomyces cerevisiae, read-out: Geometric Mean MIC): 0.249 µg/mL (≈ 0.355 µM)
- MIC ([1]; Saccharomyces cerevisiae, read-out: MIC[90]): 1 µg/mL (≈ 1.43 µM)
- MIC ([1]; Scedosporium apiospermum, read-out: Geometric Mean MIC): 0.173 µg/mL (≈ 0.247 µM)
- MIC ([1]; Scedosporium apiospermum, read-out: MIC[90]): 1 µg/mL (≈ 1.43 µM)
- MIC ([1]; Scedosporium boydii, Pseudallescheria boydii, read-out: Geometric Mean MIC): 0.365 µg/mL (≈ 0.521 µM)
- MIC ([1]; Scedosporium boydii, Pseudallescheria boydii, read-out: MIC[90]): 1 µg/mL (≈ 1.43 µM)
- MIC ([1]; Sporothrix schenckii, read-out: Geometric Mean MIC): 0.771 µg/mL (≈ 1.1 µM)
- MIC ([1]; Sporothrix schenckii, read-out: MIC[90]): 2 µg/mL (≈ 2.85 µM)
- MIC ([1]; Trichophyton mentagrophytes, read-out: Geometric Mean MIC): 0.036 µg/mL (≈ 0.0514 µM)
- MIC ([1]; Trichophyton mentagrophytes, read-out: MIC[90]): 0.125 µg/mL (≈ 0.178 µM)
- MIC ([1]; Trichophyton rubrum, Trichophyton raubitschekii, read-out: Geometric Mean MIC): 0.25 µg/mL (≈ 0.357 µM)
- MIC ([1]; Trichophyton rubrum, Trichophyton raubitschekii, read-out: MIC[90]): 0.25 µg/mL (≈ 0.357 µM)
- MIC ([1]; Trichophyton rubrum, read-out: Geometric Mean MIC): 0.047 µg/mL (≈ 0.0671 µM)
- MIC ([1]; Trichophyton rubrum, read-out: MIC[90]): 0.25 µg/mL (≈ 0.357 µM)
- MIC ([1]; Trichophyton soudanense, read-out: Geometric Mean MIC): 0.5 µg/mL (≈ 0.713 µM)
- MIC ([1]; Trichophyton soudanense, read-out: MIC[90]): 0.5 µg/mL (≈ 0.713 µM)
- MIC ([1]; Trichophyton spp, read-out: Geometric Mean MIC): 0.036 µg/mL (≈ 0.0514 µM)
- MIC ([1]; Trichophyton spp, read-out: MIC[90]): 0.064 µg/mL (≈ 0.0913 µM)
- MIC ([1]; Trichophyton tonsurans, read-out: Geometric Mean MIC): 0.029 µg/mL (≈ 0.0414 µM)
- MIC ([1]; Trichophyton tonsurans, read-out: MIC[90]): 0.125 µg/mL (≈ 0.178 µM)
- MIC ([1]; Trichosporon spp, read-out: Geometric Mean MIC): 0.63 µg/mL (≈ 0.899 µM)
- MIC ([1]; Trichosporon spp, read-out: MIC[90]): 0.5 to 1 µg/mL (≈ 0.713 to 1.43 µM)
- MIC ([1]; Yarrowia lipolytica, read-out: Geometric Mean MIC): 0.144 µg/mL (≈ 0.205 µM)
- MIC ([1]; Yarrowia lipolytica, read-out: MIC[90]): 0.016 to 1 µg/mL (≈ 0.0228 to 1.43 µM)
- Solubility in water [2]: minimally soluble in water
